Four compounds from US20220323406A1, “METHODS AND COMPOSITIONS FOR DIFFERENTIATING STEM CELLS” (Massachusetts Institute of Technology, priority 2019, published 2022) can be followed below.

The subject of assay [1] is ENR+CD organoids (ISC to Paneth cell differentiation). Briefly: Primary screen: basal (non-stimulated) lysozyme secretion LYZ.NS, 2.5-D 384-well ENR+CD organoid differentiation. The assay is classed as cell-based, mouse. The following applies: primary screen; for Z.LYZ.NS: standard z score. The source says:
(§1) High-throughput screening.

Another assay deals with ENR+CD organoids. Briefly: Primary screen: ATP (CellTiter-Glo 3D, CTG) cell number/viability, 2.5-D 384-well ENR+CD organoids.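 As to all read-outs here: compounds given at plating and again on day 3 over a 6-day differentiation from ENR+CV stem-cell-enriched precursors, ATP measured on day 6, plate median as control.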 The following applies: primary screen; for Z.CTG: standard z score. (In general: In ATP-based viability assays light output follows the ATP content of the culture.)
The subject of assay [2] is ENR+CD organoids (ISC to Paneth cell differentiation). The experiment in a line: Primary screen: CCh-stimulated lysozyme secretion LYZ.S, 2.5-D 384-well ENR+CD organoid differentiation. The class given is cell-based, mouse. The note with it: primary screen.
Text: as §1

Where [3] appears, read: dose 0.08 uM, FC relative to plate median.
[4] abbreviates: dose 0.40 uM, FC relative to plate median.
[5] abbreviates: dose 2.00 uM, FC relative to plate median.
The mark [6] stands for this setting: dose 10.00 uM, FC relative to plate median.

As for `Cn1cc(/C=C2\C(=O)Nc3cccnc32)c2ccccc21` [GW441756], the “Dose.FC.LYZ.NS (log2 fold change)” value in assay [1] (dose 0.08 uM) is given as 0.046; in assay [1] (dose 0.40 uM), 0.061; in assay [1] (dose 2.00 uM), 0.117; in assay [1] (dose 10.00 uM), 0.088. In addition, the “Z.LYZ.NS (standard z score)” value in assay [1] (dose 0.08 uM) is listed as 0.399; in assay [1] (dose 0.40 uM), 0.529; in assay [1] (dose 2.00 uM) it was 1.023; in assay [1] (dose 10.00 uM), 0.763. Moreover, the “Dose.FC.CTG (log2 fold change)” value with ENR+CD organoids (dose 0.08 uM) was 0.048; in the assay on ENR+CD organoids (dose 0.40 uM) it was −0.105; in the assay with ENR+CD organoids (dose 2.00 uM), 0.152; in the assay on ENR+CD organoids (dose 10.00 uM), −0.113. Besides, the “Z.CTG (standard z score)” value in the assay with ENR+CD organoids (dose 0.08 uM) is recorded as 0.114; in the assay with ENR+CD organoids (dose 0.40 uM) it was −0.252; in the assay on ENR+CD organoids (dose 2.00 uM), 0.364; in the assay with ENR+CD organoids (dose 10.00 uM) it was −0.270. Also, the “Dose.FC.LYZ.S (log2 fold change)” value in assay [2] (dose 0.08 uM) was 0.075; in assay [2] (dose 0.40 uM), 0.196; in assay [2] (dose 2.00 uM), 0.125; in assay [2] (dose 10.00 uM), 0.071.

For `CCCCNc1ncc(-c2ccc(CN3CCOCC3)cn2)c(NC2CCC(O)CC2)n1` (centres unmarked) [UNC2250], the Dose.FC.LYZ.NS is 0.115 log2 fold change in assay [1] (dose 0.08 uM), 0.067 log2 fold change in assay [1] (dose 0.40 uM), 0.085 log2 fold change in assay [1] (dose 2.00 uM) and −0.153 log2 fold change in assay [1] (dose 10.00 uM). In addition, the “Z.LYZ.NS (standard z score)” value in assay [1] (dose 0.08 uM) is 1.005; in assay [1] (dose 0.40 uM), 0.587; in assay [1] (dose 2.00 uM), 0.744; in assay [1] (dose 10.00 uM), −1.336. Moreover, the Dose.FC.CTG was 0.265 log2 fold change in the assay with ENR+CD organoids (dose 0.08 uM), 0.279 log2 fold change in the assay on ENR+CD organoids (dose 0.40 uM), 0.105 log2 fold change in the assay on ENR+CD organoids (dose 2.00 uM) and −0.064 log2 fold change in the assay with ENR+CD organoids (dose 10.00 uM). Also, the “Z.CTG (standard z score)” value with ENR+CD organoids (dose 0.08 uM) is listed as 0.633; with ENR+CD organoids (dose 0.40 uM), 0.667; in the assay with ENR+CD organoids (dose 2.00 uM), 0.250; in the assay on ENR+CD organoids (dose 10.00 uM) it was −0.153. Moreover, the Dose.FC.LYZ.S is 0.142 log2 fold change in assay [2] (dose 0.08 uM), 0.113 log2 fold change in assay [2] (dose 0.40 uM), 0.134 log2 fold change in assay [2] (dose 2.00 uM) and −0.205 log2 fold change in assay [2] (dose 10.00 uM).

As for `Cc1nnc(C(=O)NC(C)(C)c2nc(C(=O)NCc3ccc(F)cc3)c(O)c(=O)n2C)o1` [Raltegravir (MK-0518)], the Dose.FC.LYZ.NS was found to be 0.187 log2 fold change in assay [1] (setting [3]), 0.035 log2 fold change in assay [1] (setting [4]), 0.029 log2 fold change in assay [1] (setting [5]) and 0.042 log2 fold change in assay [1] (setting [6]). The Z.LYZ.NS is listed as 1.627 in assay [1] (dose 0.08 uM), 0.302 in assay [1] (dose 0.40 uM), 0.254 in assay [1] (dose 2.00 uM) and 0.366 in assay [1] (dose 10.00 uM). Besides, the Dose.FC.CTG in the assay with ENR+CD organoids (setting [3]) worked out at 0.108 log2 fold change; with ENR+CD organoids (setting [4]), 0.094 log2 fold change; in the assay with ENR+CD organoids (setting [5]) it was 0.197 log2 fold change; in the assay on ENR+CD organoids (setting [6]) it was 0.170 log2 fold change. The Z.CTG in the assay on ENR+CD organoids (dose 0.08 uM) is on record as 0.258; in the assay on ENR+CD organoids (dose 0.40 uM) it was 0.224; in the assay on ENR+CD organoids (dose 2.00 uM), 0.471; in the assay with ENR+CD organoids (dose 10.00 uM) it was 0.407. The Dose.FC.LYZ.S was found to be 0.137 log2 fold change in assay [2] (setting [3]), 0.037 log2 fold change in assay [2] (setting [4]), 0.122 log2 fold change in assay [2] (setting [5]) and 0.183 log2 fold change in assay [2] (setting [6]).

In the case of `CC(/C=C/C(=O)NO)=C\[C@@H](C)C(=O)c1ccc(N(C)C)cc1` [Trichostatin A (TSA)], the Dose.FC.LYZ.NS in assay [1] (dose 0.08 uM) is given as −0.064 log2 fold change; in assay [1] (dose 0.40 uM), −0.195 log2 fold change; in assay [1] (dose 2.00 uM) it was −0.153 log2 fold change; in assay [1] (dose 10.00 uM), −0.149 log2 fold change. Further, the “Z.LYZ.NS (standard z score)” value is −0.554 in assay [1] (dose 0.08 uM), −1.697 in assay [1] (dose 0.40 uM), −1.334 in assay [1] (dose 2.00 uM) and −1.298 in assay [1] (dose 10.00 uM). The Dose.FC.CTG is given as 0.191 log2 fold change with ENR+CD organoids (dose 0.08 uM), −0.801 log2 fold change in the assay with ENR+CD organoids (dose 0.40 uM), −0.904 log2 fold change in the assay on ENR+CD organoids (dose 2.00 uM) and −0.826 log2 fold change in the assay on ENR+CD organoids (dose 10.00 uM). The “Z.CTG (standard z score)” value with ENR+CD organoids (dose 0.08 uM) is 0.457; in the assay on ENR+CD organoids (dose 0.40 uM) it was −1.913; in the assay on ENR+CD organoids (dose 2.00 uM) it was −2.159; in the assay on ENR+CD organoids (dose 10.00 uM), −1.974. The Dose.FC.LYZ.S in assay [2] (dose 0.08 uM) was −0.124 log2 fold change; in assay [2] (dose 0.40 uM), −0.254 log2 fold change; in assay [2] (dose 2.00 uM), −0.210 log2 fold change; in assay [2] (dose 10.00 uM), −0.202 log2 fold change.
